{
  "source": "patent EP1769804B1",
  "about": "“hPTH(1-34) for use in preventing or reducing the incidence or severity of vertebral and / or non vertebral fracture in a male human” (priority 1998, dated 2012)",
  "key": {"[1]": {"conditions": "cynomolgus monkey, in vivo", "quoted_text": "Serum and urinary samples were taken 24 hours after vehicle or rhPTH(1-34) injection at 3-month intervals. A sparse sampling design of 5 monkeys in each rhPTH(1-34)-treated group was used for pharmacokinetics, with sampling (spanning 0 to 240 minutes each time) at baseline, 7, 11, and 17 months."}, "[2]": {"test_system": "post-menopausal women", "assay": "Clinical trial: BMC, BMD and bone area by dual energy absorptiometry (DEXA)", "type": "in vivo, Humans", "experimental": "The effect of PTH on bone mineral content (BMC), bone mineral density (BMD), and bone area were determined by dual energy absorptiometry (DEXA), and the results are reported in Tables 12-14. PTH administration caused apparent increases in BMC at the patient's lumbar spine, femur and hip, wrist, and throughout the patient's whole body (Table 12). Treatment with PTH caused significant increases in the patient's BMD at the lumbar spine, femur and hip (Table 13). The increases at the lumbar spine, femur and hip were statistically significant with p<0.001 (Table 13). […] The increases were statistically significant for the lumbar spine and hip neck (Table 14)."}, "[3]": {"test_system": "post-menopausal women", "assay": "Clinical trial: number and severity of vertebral fractures (spine x-ray)", "type": "in vivo, Humans"}, "[4]": {"conditions": "20 µg/day PTH compared to placebo"}, "[5]": {"conditions": "40 µg/day PTH compared to placebo"}, "[6]": {"conditions": "all PTH treated patients compared with placebo"}},
  "data": [
    {"substance": "teriparatide [rhPTH(1-34)]", "values": [
      {"measurement": "pharmacokinetic measures", "setting": "[1]", "value": "did not change with time"},
      {"measurement": "bone area, endpoint % change (SD) from baseline, Femur/Hip Intertrochanter", "setting": "[2]; PTH-20", "value": "1.01 (4.99) %"},
      {"measurement": "bone area, endpoint % change (SD) from baseline, Femur/Hip Neck", "setting": "[2]; PTH-20", "value": "0.27 (4.91) %"},
      {"measurement": "bone area, endpoint % change (SD) from baseline, Femur/Hip Total", "setting": "[2]; PTH-20", "value": "0.84 (3.16) %"},
      {"measurement": "bone area, endpoint % change (SD) from baseline, Femur/Hip Trochanter", "setting": "[2]; PTH-20", "value": "1.99 (12.16) %"},
      {"measurement": "bone area, endpoint % change (SD) from baseline, Femur/Hip Ward's triangle", "setting": "[2]; PTH-20", "value": "1.13 (7.34) %"},
      {"measurement": "bone area, endpoint % change (SD) from baseline, Lumbar spine", "setting": "[2]; PTH-20", "value": "2.52 (3.52) %"},
      {"measurement": "bone area, endpoint % change (SD) from baseline, Wrist 1/3 radius", "setting": "[2]; PTH-20", "value": "0.52 (3.40) %"},
      {"measurement": "bone area, endpoint % change (SD) from baseline, Wrist Ultradistal", "setting": "[2]; PTH-20", "value": "-0.25 (6.00) %"},
      {"measurement": "bone mineral content, endpoint % change (SD) from baseline, Femur/Hip Intertrochanter", "setting": "[2]; PTH-20", "value": "3.59 (7.32) %"},
      {"measurement": "bone mineral content, endpoint % change (SD) from baseline, Femur/Hip Neck", "setting": "[2]; PTH-20", "value": "2.99 (7.26) %"},
      {"measurement": "bone mineral content, endpoint % change (SD) from baseline, Femur/Hip Total", "setting": "[2]; PTH-20", "value": "3.50 (6.26) %"},
      {"measurement": "bone mineral content, endpoint % change (SD) from baseline, Femur/Hip Trochanter", "setting": "[2]; PTH-20", "value": "5.68 (15.58) %"},
      {"measurement": "bone mineral content, endpoint % change (SD) from baseline, Femur/Hip Ward's triangle", "setting": "[2]; PTH-20", "value": "5.36 (14.78) %"},
      {"measurement": "bone mineral content, endpoint % change (SD) from baseline, Lumbar spine", "setting": "[2]; PTH-20", "value": "11.85 (8.83) %"},
      {"measurement": "bone mineral content, endpoint % change (SD) from baseline, Whole body", "setting": "[2]; PTH-20", "value": "1.30 (4.48) %"},
      {"measurement": "bone mineral content, endpoint % change (SD) from baseline, Wrist 1/3 radius", "setting": "[2]; PTH-20", "value": "-1.37 (4.51) %"},
      {"measurement": "bone mineral content, endpoint % change (SD) from baseline, Wrist Ultradistal", "setting": "[2]; PTH-20", "value": "-0.25 (6.53) %"},
      {"measurement": "bone mineral density, endpoint % change (SD) from baseline, Femur/Hip Intertrochanter", "setting": "[2]; PTH-20", "value": "2.62 (5.52) %"},
      {"measurement": "bone mineral density, endpoint % change (SD) from baseline, Femur/Hip Neck", "setting": "[2]; PTH-20", "value": "2.79 (5.72) %"},
      {"measurement": "bone mineral density, endpoint % change (SD) from baseline, Femur/Hip Total", "setting": "[2]; PTH-20", "value": "2.58 (4.88) %"},
      {"measurement": "bone mineral density, endpoint % change (SD) from baseline, Femur/Hip Trochanter", "setting": "[2]; PTH-20", "value": "3.50 (6.81) %"},
      {"measurement": "bone mineral density, endpoint % change (SD) from baseline, Femur/Hip Ward's triangle", "setting": "[2]; PTH-20", "value": "4.19 (11.93) %"},
      {"measurement": "bone mineral density, endpoint % change (SD) from baseline, Lumbar spine", "setting": "[2]; PTH-20", "value": "9.70 (7.41) %"},
      {"measurement": "bone mineral density, endpoint % change (SD) from baseline, Wrist 1/3 radius", "setting": "[2]; PTH-20", "value": "-1.94 (4.07) %"},
      {"measurement": "bone mineral density, endpoint % change (SD) from baseline, Wrist Ultradistal", "setting": "[2]; PTH-20", "value": "-0.05 (7.14) %"},
      {"measurement": "bone area, endpoint % change (SD) from baseline, Femur/Hip Intertrochanter", "setting": "[2]; PTH-40", "value": "1.01 (4.89) %"},
      {"measurement": "bone area, endpoint % change (SD) from baseline, Femur/Hip Neck", "setting": "[2]; PTH-40", "value": "0.81 (5.56) %"},
      {"measurement": "bone area, endpoint % change (SD) from baseline, Femur/Hip Total", "setting": "[2]; PTH-40", "value": "1.05 (2.98) %"},
      {"measurement": "bone area, endpoint % change (SD) from baseline, Femur/Hip Trochanter", "setting": "[2]; PTH-40", "value": "1.92 (11.30) %"},
      {"measurement": "bone area, endpoint % change (SD) from baseline, Femur/Hip Ward's triangle", "setting": "[2]; PTH-40", "value": "0.99 (8.06) %"},
      {"measurement": "bone area, endpoint % change (SD) from baseline, Lumbar spine", "setting": "[2]; PTH-40", "value": "3.34 (3.72) %"},
      {"measurement": "bone area, endpoint % change (SD) from baseline, Wrist 1/3 radius", "setting": "[2]; PTH-40", "value": "0.01 (4.42) %"},
      {"measurement": "bone area, endpoint % change (SD) from baseline, Wrist Ultradistal", "setting": "[2]; PTH-40", "value": "-0.39 (4.80) %"},
      {"measurement": "bone mineral content, endpoint % change (SD) from baseline, Femur/Hip Intertrochanter", "setting": "[2]; PTH-40", "value": "4.99 (7.79) %"},
      {"measurement": "bone mineral content, endpoint % change (SD) from baseline, Femur/Hip Neck", "setting": "[2]; PTH-40", "value": "5.80 (8.71) %"},
      {"measurement": "bone mineral content, endpoint % change (SD) from baseline, Femur/Hip Total", "setting": "[2]; PTH-40", "value": "4.78 (6.70) %"},
      {"measurement": "bone mineral content, endpoint % change (SD) from baseline, Femur/Hip Trochanter", "setting": "[2]; PTH-40", "value": "6.53 (15.33) %"},
      {"measurement": "bone mineral content, endpoint % change (SD) from baseline, Femur/Hip Ward's triangle", "setting": "[2]; PTH-40", "value": "8.86 (17.02) %"},
      {"measurement": "bone mineral content, endpoint % change (SD) from baseline, Lumbar spine", "setting": "[2]; PTH-40", "value": "16.62 (11.1) %"},
      {"measurement": "bone mineral content, endpoint % change (SD) from baseline, Whole body", "setting": "[2]; PTH-40", "value": "2.28 (5.44) %"},
      {"measurement": "bone mineral content, endpoint % change (SD) from baseline, Wrist 1/3 radius", "setting": "[2]; PTH-40", "value": "-3.04 (6.09) %"},
      {"measurement": "bone mineral content, endpoint % change (SD) from baseline, Wrist Ultradistal", "setting": "[2]; PTH-40", "value": "-1.88 (7.97) %"},
      {"measurement": "bone mineral density, endpoint % change (SD) from baseline, Femur/Hip Intertrochanter", "setting": "[2]; PTH-40", "value": "3.98 (5.96) %"},
      {"measurement": "bone mineral density, endpoint % change (SD) from baseline, Femur/Hip Neck", "setting": "[2]; PTH-40", "value": "5.06 (6.73) %"},
      {"measurement": "bone mineral density, endpoint % change (SD) from baseline, Femur/Hip Total", "setting": "[2]; PTH-40", "value": "3.60 (5.42) %"},
      {"measurement": "bone mineral density, endpoint % change (SD) from baseline, Femur/Hip Trochanter", "setting": "[2]; PTH-40", "value": "4.40 (7.45) %"},
      {"measurement": "bone mineral density, endpoint % change (SD) from baseline, Femur/Hip Ward's triangle", "setting": "[2]; PTH-40", "value": "7.85 (13.24) %"},
      {"measurement": "bone mineral density, endpoint % change (SD) from baseline, Lumbar spine", "setting": "[2]; PTH-40", "value": "13.7 (9.69) %"},
      {"measurement": "bone mineral density, endpoint % change (SD) from baseline, Wrist 1/3 radius", "setting": "[2]; PTH-40", "value": "-3.17 (4.62) %"},
      {"measurement": "bone mineral density, endpoint % change (SD) from baseline, Wrist Ultradistal", "setting": "[2]; PTH-40", "value": "-1.76 (7.20) %"},
      {"measurement": "Number of patients with 2 or more new vertebral fractures", "setting": "[3]; 20 µg/day PTH (n=444)", "value": 5},
      {"measurement": "Number of patients with new moderate to severe fractures", "setting": "[3]; 20 µg/day PTH (n=444)", "value": 4},
      {"measurement": "Number of patients with new vertebral fractures", "setting": "[3]; 20 µg/day PTH (n=444)", "value": 22},
      {"measurement": "percentage of patients with 2 or more new vertebral fractures", "setting": "[3]; 20 µg/day PTH (n=444)", "value": "(1.1%)"},
      {"measurement": "percentage of patients with new moderate to severe fractures", "setting": "[3]; 20 µg/day PTH (n=444)", "value": "(0.9%)"},
      {"measurement": "percentage of patients with new vertebral fractures", "setting": "[3]; 20 µg/day PTH (n=444)", "value": "(5.0%)"},
      {"measurement": "reduction in number of patients with moderate to severe vertebral fractures", "setting": "[3]; [4]", "value": 90, "unit": "%"},
      {"measurement": "reduction in number of patients with multiple vertebral fractures", "setting": "[3]; [4]", "value": 77, "unit": "%"},
      {"measurement": "reduction in number of patients with vertebral fractures", "setting": "[3]; [4]", "value": 65, "unit": "%"},
      {"measurement": "Number of patients with 2 or more new vertebral fractures", "setting": "[3]; 40 µg/day PTH (n=434)", "value": 3},
      {"measurement": "Number of patients with new moderate to severe fractures", "setting": "[3]; 40 µg/day PTH (n=434)", "value": 9},
      {"measurement": "Number of patients with new vertebral fractures", "setting": "[3]; 40 µg/day PTH (n=434)", "value": 19},
      {"measurement": "percentage of patients with 2 or more new vertebral fractures", "setting": "[3]; 40 µg/day PTH (n=434)", "value": "(0.7%)"},
      {"measurement": "percentage of patients with new moderate to severe fractures", "setting": "[3]; 40 µg/day PTH (n=434)", "value": "(2.1%)"},
      {"measurement": "percentage of patients with new vertebral fractures", "setting": "[3]; 40 µg/day PTH (n=434)", "value": "(4.4%)"},
      {"measurement": "reduction in number of patients with moderate to severe vertebral fractures", "setting": "[3]; [5]", "value": 78, "unit": "%"},
      {"measurement": "reduction in number of patients with multiple vertebral fractures", "setting": "[3]; [5]", "value": 86, "unit": "%"},
      {"measurement": "reduction in number of patients with vertebral fractures", "setting": "[3]; [5]", "value": 69, "unit": "%"},
      {"measurement": "reduction in number of patients with moderate to severe vertebral fractures", "setting": "[3]; [6]", "value": 84, "unit": "%"},
      {"measurement": "reduction in number of patients with multiple vertebral fractures", "setting": "[3]; [6]", "value": 81, "unit": "%"},
      {"measurement": "reduction in number of patients with vertebral fractures", "setting": "[3]; [6]", "value": 67, "unit": "%"},
      {"measurement": "reduction in the number of patients with moderate or severe fractures", "setting": "[3]; summary", "value": 78, "unit": "%"},
      {"measurement": "reduction of the number of patients with prior vertebral fractures who suffered new vertebral fractures", "setting": "[3]; summary", "value": "more than 66%"},
      {"measurement": "reduction of the number of patients with prior vertebral fractures who suffered new, multiple vertebral fractures", "setting": "[3]; summary", "value": "more than 78%"}
    ]}
  ]
}
